Several values for one entry are separate records, joined by “and”; a condition that tells them apart may be missing. Equal entries are not always repeated. Where two headings read alike, the source gives them in different places.
Assays:
[1] = tested on: HIV transcripts (PolyA, TatRev); assay: Dose-response curves of LPAs: polyadenylated and multiply spliced HIV transcripts 24 hours after activation; assay type: cell-based; settings: for PolyA (dose-response) / MS Tat-Rev (dose-response): 24 hours, 1 participant per drug; for IC50: Human immunodeficiency virus 1, PBMC, 24 h, PBMCs from 1 participant per drug
Protocol: The IC50 was determined based on the reduction in completed (PolyA) as well as multiply spliced (TatRev) HIV transcripts relative to activated DMSO (Table 1).
Figure 2 Dose-response curves of LPAs. Dose-response curves for each drug were generated in PBMCs from 1 ART-suppressed study participant per drug. PBMCs were aliquoted into wells at 6 × 10^6 cells/well, activated, and cultured with antiretrovirals in the presence of DMSO alone (no drug) or varying concentrations of individual drugs in DMSO. After 24 hours, the levels of polyadenylated and multiply spliced HIV transcripts were quantified by RT-ddPCR, normalized to 1 μg of total cellular RNA, and expressed as a percentage of the activated DMSO control (% of activated DMSO).

[2] = tested on: HIV transcripts (TAR, LLTR, Pol, PolyA, TatRev); assay: Latency reversal assay: cell-associated HIV transcripts (RT-ddPCR) 24 hours after anti-CD3/CD28 activation of PBMCs from ART-suppressed PWH; assay type: cell-based; parameters: key to TatRev: % of activated DMSO control, normalized to 1 μg total RNA; Elongated (LLTR) HIV transcripts, median relative to activated DMSO, initial screening / Midtranscribed (Pol) HIV transcripts, median relative to activated DMSO, initial screening / Multiply spliced (TatRev) HIV transcripts, median relative to activated DMSO, initial screening: concentration or dose not given beside the values; settings: for Pol HIV transcripts (DMSO αCD3/28 = 100) / PolyA HIV transcripts (DMSO αCD3/28 = 100) / TatRev HIV transcripts (DMSO αCD3/28 = 100): αCD3/28-activated, ruxolitinib 4μM, triptolide 25-50nM, alvocidib 40nM, dinaciclib 8nM, AZD4573 8nM, quercetin 5μM, pladienolide B 10nM, isoginkgetin 25μM, herboxidiene 5nM, KRIBB11 2.5μM, tanespimycin 5μM, mithramycin A 25nM; for PolyA/LLTR / TatRev/PolyA / LLTR/TAR: DMSO+CD3/28 = 1, Fig 3B, C and D; for PolyA / TatRev: DMSO+αCD3/28 = 100, Fig 3A
Protocol: We selected 26 small molecules targeting pathways implicated in HIV transcription or the blocks to HIV transcription underlying latency (Supplemental Table 1). […] Initial screening of all drugs was performed in freshly isolated PBMCs from 2 ART-suppressed individuals (Figure 1 and Supplemental Figure 2). PBMCs were cultured in the presence of individual drugs in DMSO or DMSO alone as a control, subsequently activated (anti-CD3/CD28), and harvested after 24 hours. […] The progression through different blocks to HIV transcription was quantified by measuring the levels of initiated (TAR), 5′ elongated (LLTR), midtranscribed/unspliced (Pol), completed (PolyA), and multiply spliced (TatRev) HIV transcripts. The levels of those HIV transcripts were normalized to 1 μg of total cellular RNA (to normalize for the effect of the drug on global cellular transcription) and expressed as a percentage of the activated DMSO control.
Figure 1 Screening of candidate LPAs by measuring the change in multiply spliced HIV transcripts after activation. Each drug was tested in PBMCs from 2 ART-suppressed study participants (denoted in the legend by varying symbol shapes). PBMCs were aliquoted into wells at 6 × 10^6 cells/well. After activation, the cells were cultured with antiretrovirals in the presence of individual drugs in DMSO or DMSO alone as control. All conditions were tested in the presence of CD3/28 T cell–activating beads, except for the unactivated DMSO condition. (A) After 24 hours, the viability was measured by trypan blue staining and then normalized to the levels of the activated DMSO (% of activated DMSO). Bars indicate medians. (B) Total cellular RNA was extracted, and the levels of multiply spliced HIV transcripts (TatRev) were measured by RT-ddPCR, normalized to 1 μg of total cellular RNA, and expressed as a percentage of the activated DMSO control (% of activated DMSO). RT-dd, reverse transcription digital droplet; vRNA, viral RNA; HAT, histone acetyltransferase.
The ability of our candidate LPAs to inhibit HIV transcriptional progression after activation was examined in PBMCs from a minimum of 7 PWH per drug tested (Figure 3). PBMCs were cultured in the presence of individual drugs in DMSO or in DMSO alone as a control, subsequently activated (anti-CD3/CD28), and harvested after 24 hours.
Each drug was tested in PBMCs from 7 ART-suppressed study participants. The PBMCs were aliquoted into wells at 6 × 10^6 cells/well. After activation, the cells were cultured with antiretrovirals in the presence of individual drugs in DMSO or DMSO alone as control. All conditions were tested in the presence of CD3/28 T cell–activating beads, except for the unactivated DMSO condition. After 24 hours, total RNA was extracted, and the progression through different stages of HIV transcription was quantified by measuring the levels of initiated (TAR), 5′ elongated (LLTR), midtranscribed/unspliced (Pol), completed (PolyA), and multiply spliced (TatRev) HIV transcripts. (A) The levels of all HIV transcripts were normalized to 1 μg of total cellular RNA and expressed as a percentage of the activated DMSO control (% of activated DMSO). Medians are shown as well as the individual values per study participant in different colors. (B–D) The effect of each drug on HIV transcriptional progression after activation was analyzed by the ratio of one HIV transcript to another. Ratios are independent of HIV infection frequency or normalization to cell numbers. Shown are the proportion of (B) all HIV transcripts that were elongated (LLTR/TAR), (C) elongated HIV transcripts that were completed spliced (PolyA/LLTR), and (D) completed transcripts that were multiply spliced (TatRev/PolyA).

[3] = reduction in PolyA HIV transcripts relative to activated DMSO, read-out: Completed (PolyA) IC50
[4] = reduction in TatRev HIV transcripts relative to activated DMSO, read-out: Multiply spliced (TatRev) IC50
[5] = 2.5μM, 24 h after αCD3/28 activation, each column one participant
[6] = initial screening, 2 participants, 24 hours, Supplemental Figure 2

With `CCc1cnn2c(NCc3ccc[n+]([O-])c3)cc(N3CCCC[C@H]3CCO)nc12` [dinaciclib] the “PolyA (dose-response)” value ([1]; dose 1 nM) was 39.51 % of activated DMSO, the “PolyA (dose-response)” value ([1]; dose 4 nM) was 6.37 % of activated DMSO and the “PolyA (dose-response)” value ([1]; dose 8 nM) was 1.62 % of activated DMSO.
With `O=c1c(O)c(-c2ccc(O)c(O)c2)oc2cc(O)cc(O)c12` [quercetin] the IC50 [1, 3] was 1.41 µM, the IC50 [1, 4] was 1.13 µM and the “MS Tat-Rev (dose-response)” value ([1]; dose 5 µM) was 15.52 % of activated DMSO. For the same molecule, the “PolyA (dose-response)” value ([1]; dose 5 µM) was 17.57 % of activated DMSO, the “MS Tat-Rev (dose-response)” value ([1]; dose 10 µM) was 14.99 % of activated DMSO and the “PolyA (dose-response)” value ([1]; dose 10 µM) was 19.46 % of activated DMSO.
For `CN1CC[C@H](c2c(O)cc(O)c3c(=O)cc(-c4ccccc4Cl)oc23)[C@H](O)C1` [alvocidib], the IC50 [1, 3] was 0.00341 µM, the IC50 [1, 4] was 0.00423 µM and the “MS Tat-Rev (dose-response)” value ([1]; dose 4 nM) was 60.15 % of activated DMSO. The “PolyA (dose-response)” value ([1]; dose 4 nM) was 52.96 % of activated DMSO, the “MS Tat-Rev (dose-response)” value ([1]; dose 10 nM) was 21.37 % of activated DMSO and the “PolyA (dose-response)” value ([1]; dose 10 nM) was 17.13 % of activated DMSO. For the same molecule, the “MS Tat-Rev (dose-response)” value ([1]; dose 40 nM) was 5.52 % of activated DMSO, the “PolyA (dose-response)” value ([1]; dose 40 nM) was 5.99 % of activated DMSO and the “MS Tat-Rev (dose-response)” value ([1]; dose 100 nM) was 1.88 % of activated DMSO. The “PolyA (dose-response)” value ([1]; dose 100 nM) was 3.2 % of activated DMSO.
`CNc1ccc([N+](=O)[O-])c(Nc2ccc3[nH]ncc3c2)n1` [KRIBB11] was tested, and the “LLTR HIV transcripts (DMSO+αCD3/28 = 100)” value [2, 5] was 71.02 and 48.35 and 38.5 and 36.33 and 35.09 and 15.92 and 24.32, the “Pol HIV transcripts (DMSO+αCD3/28 = 100)” value [2, 5] was 19.01 and 13.73 and 14.61 and 76.94 and 12.5 and 1.36 and 0 and the “TAR HIV transcripts (DMSO+αCD3/28 = 100)” value [2, 5] was 122.57 and 166.06 and 91.93 and 75.64. For the same molecule, the “TatRev HIV transcripts (DMSO+αCD3/28 = 100)” value [2, 5] was 11.03 and 9.21 and 38.96 and 12.13 and 2.02 and 0 and 8.77, the “HIV transcriptional elongation, ratio LLTR/TAR” value ([2]; 24 hours, compared with activated DMSO, Figure 3B) was “inhibited” and the “HIV transcriptional completion, ratio PolyA/LLTR” value ([2]; 24 hours, compared with activated DMSO, Figure 3C) was “reduced completion”. The “Reduction of multiply spliced or completed HIV transcripts in drug screen (selection as candidate LPA)” value ([2]; initial screening, 2 participants, 24 hours) was “more than 50%”, the “Elongated (LLTR) HIV transcripts, median relative to activated DMSO, initial screening” value [2, 6] was 60% and the “Midtranscribed (Pol) HIV transcripts, median relative to activated DMSO, initial screening” value [2, 6] was 16%. For the same molecule, the “Pol HIV transcripts (DMSO αCD3/28 = 100)” value ([2]; participant 2027) was 73.68, the “PolyA HIV transcripts (DMSO αCD3/28 = 100)” value (from here on “PolyA HIV transcripts”) ([2]; participant 2027) was 106.67 and the “TatRev HIV transcripts (DMSO αCD3/28 = 100)” value ([2]; participant 2027) was 11.11. For the same molecule, the “Pol HIV transcripts (DMSO αCD3/28 = 100)” value ([2]; participant 2147a) was 33.33, the “PolyA HIV transcripts” value ([2]; participant 2147a) was 22.8 and the “TatRev HIV transcripts (DMSO αCD3/28 = 100)” value ([2]; participant 2147a) was 46.99. For the same molecule, the “Pol HIV transcripts (DMSO αCD3/28 = 100)” value ([2]; participant 2256) was 169.23, the “PolyA HIV transcripts” value ([2]; participant 2256) was 89.76 and the “TatRev HIV transcripts (DMSO αCD3/28 = 100)” value ([2]; participant 2256) was 84.19. The “PolyA HIV transcripts” value ([2]; participant 2461) was 176.92, the “Pol HIV transcripts (DMSO αCD3/28 = 100)” value ([2]; participant 2747) was 8.97 and the “PolyA HIV transcripts” value ([2]; participant 2747) was 19.67. For the same molecule, the “TatRev HIV transcripts (DMSO αCD3/28 = 100)” value ([2]; participant 2747) was 30, the “Multiply spliced HIV transcripts (TatRev) (Fig 1B)” value ([2]; study participant 150a, 24 hours) was 11.03 % of activated DMSO and the PolyA/LLTR ([2]; study participant 150a) was 0.3562. For the same molecule, the TatRev/PolyA ([2]; study participant 150a) was 0.4361, the PolyA ([2]; study participant 150a) was 25.3 and the TatRev ([2]; study participant 150a) was 11.03. The “Multiply spliced HIV transcripts (TatRev) (Fig 1B)” value ([2]; study participant 152, 24 hours) was 9.21 % of activated DMSO, the PolyA/LLTR ([2]; study participant 152) was 0.4136 and the TatRev/PolyA ([2]; study participant 152) was 0.4605. It also gave a PolyA ([2]; study participant 152) of 20, a TatRev ([2]; study participant 152) of 9.21 and a PolyA/LLTR ([2]; study participant 163) of 0.6494. For the same molecule, the TatRev/PolyA ([2]; study participant 163) was 1.558, the PolyA ([2]; study participant 163) was 25 and the TatRev ([2]; study participant 163) was 38.96. For the same molecule, the LLTR/TAR ([2]; study participant 1379) was 0.1731, the PolyA/LLTR ([2]; study participant 1379) was 0.3046 and the TatRev/PolyA ([2]; study participant 1379) was 0. It also gave a PolyA ([2]; study participant 1379) of 4.85, a TatRev ([2]; study participant 1379) of 0 and an LLTR/TAR ([2]; study participant 2147b) of 0.3199. For the same molecule, the PolyA/LLTR ([2]; study participant 2147b) was 0.5626, the TatRev/PolyA ([2]; study participant 2147b) was 0.4866 and the PolyA ([2]; study participant 2147b) was 34.68. The TatRev ([2]; study participant 2147b) was 12.13, the LLTR/TAR ([2]; study participant 2256) was 0.2113 and the PolyA/LLTR ([2]; study participant 2256) was 0.2703. The TatRev/PolyA ([2]; study participant 2256) was 0.2127, the PolyA ([2]; study participant 2256) was 9.49 and the TatRev ([2]; study participant 2256) was 2.02. The LLTR/TAR ([2]; study participant 5557) was 0.3215, the PolyA/LLTR ([2]; study participant 5557) was 0.6238 and the TatRev/PolyA ([2]; study participant 5557) was 0.5784. It also gave a PolyA ([2]; study participant 5557) of 15.17 and a TatRev ([2]; study participant 5557) of 8.77.
